This is an account of results in PubChem BioAssay (NCI).

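Assay format: 96-well plates, 48-hour exposure. At the GI50, growth is halved. The concentration for full growth arrest is given as TGI.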 Bounds are passed on as bounds.

Some test systems named below: A549 NSCLC; CCRF-CEM leukemia; HCC-2998 colon; HCT-15 colon; IGROV1 ovarian; LOX IMVI melanoma; NCI-H23 lung; NCI-H522 lung; SK-MEL-2 melanoma; SW-620 colon.
Test in all cases: inhibition of tumour cell growth, NCI panel, 48 h

As to `Cc1ccn2c3c(c(C(=O)O)c2c1)C(=O)c1ccccc1C3=O`, the GI50 with A549 NSCLC is 1.77 µM; in the assay with CCRF-CEM leukemia, over 100 µM; with HCC-2998 colon, 4.58 µM; in the assay with HCT-15 colon, 5.14 µM; in the assay on IGROV1 ovarian, over 42.1 µM; in the assay on LOX IMVI melanoma it was 4.36 µM. For the same compound, the GI50 with NCI-H23 lung was 1.74 µM; in the assay with NCI-H522 lung it was over 45.7 µM; with SK-MEL-2 melanoma, over 100 µM; in the assay with SW-620 colon, 15.1 µM. Besides, the TGI in the assay on A549 NSCLC was 4.4 µM; in the assay on CCRF-CEM leukemia it was over 100 µM; with HCC-2998 colon, over 100 µM; with HCT-15 colon, over 100 µM; in the assay with IGROV1 ovarian it was over 100 µM; in the assay on LOX IMVI melanoma, over 100 µM. In addition, the TGI with NCI-H23 lung is 5.88 µM; in the assay on NCI-H522 lung it was over 100 µM; in the assay on SK-MEL-2 melanoma it was over 100 µM; in the assay on SW-620 colon, over 100 µM.

For `CSC1=NC=CCN1C`, the TGI in the assay on A549 NSCLC, in the assay on CCRF-CEM leukemia, in the assay with HCC-2998 colon, in the assay with HCT-15 colon, in the assay on IGROV1 ovarian and in the assay with LOX IMVI melanoma was over 100 µM each time. The TGI in the assay on NCI-H23 lung, in the assay with NCI-H522 lung, with SK-MEL-2 melanoma and in the assay with SW-620 colon was over 100 µM in each case.
